From patent US9375000B2, “Pesticidal arylpyrrolidines” (Bayer Intellectual Property GmbH, priority 2011, dated 2016)

How the values were obtained:
Assay type in all cases: in vivo
[1] = system: Tobacco Cutworm (Spodoptera litura) Larvae; assay: Tobacco cutworm (Spodoptera litura) larvae, sweet potato leaf dip test; details: dead larvae after 7 days
How it was run: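 Sweet potato leaves were dipped in DMF/emulsifier test solution at the set concentration and air-dried. Ten third-instar S. litura larvae were placed per dish at 25 °C, with fresh leaves added on days 2 and 4. Mortality was counted on day 7, given as % insecticidal activity averaged over two dishes.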

[2] = system: Two-Spotted Spider Mite (Tetranychus urticae); assay: Two-spotted spider mite (Tetranychus urticae) spray test on kidney bean; details: after 7 days; for pest or weed control at 20 ppm: active compound concentration 20 ppm
How it was run: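 Kidney bean plants at the two-leaf stage carried 50-100 adult mites and were sprayed one day later with compound in DMF/polyoxyethylene alkyl phenyl ether diluted in water. Ammonium salt and penetration enhancer at 1000 ppm were added if needed. Acaricidal activity (% mites killed) was scored after 7 days in a greenhouse.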

[3] = system: Cucurbit Leaf Beetle (Aulacophora femoralis); assay: Cucurbit leaf beetle (Aulacophora femoralis) cucumber leaf dip test; details: after 7 days; for pest or weed control at 20 ppm / pest or weed control at 4 ppm: Aulacophora, foliar, 168 h, read-out: insecticidal activity; for pest or weed control at 4 ppm: active compound concentration 4 ppm
How it was run: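 Cucumber leaves dipped in compound formulated with DMF and polyoxyethylene alkyl phenyl ether, diluted in water, with ammonium salt or ammonium salt plus penetration enhancer at 1000 ppm added if necessary; dried leaves placed on sterilized soil with five second-instar larvae. Kept at 25° C; larval mortality counted after 7 days.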

[4] = system: Larvae of Spodoptera litura; assay: Larvae of Spodoptera litura, method using artificial feeds; details: Spodoptera litura, 168 h, artificial feed, after 7 days, read-out: insecticidal activity (pesticidal ratio); for pest or weed control at 20 ppm: active compound concentration 20 ppm; for pest or weed control at 4 ppm: active compound concentration 4 ppm
How it was run: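 Compound formulated in dimethylformamide with polyoxyethylene alkyl phenyl ether emulsifier, water-diluted and poured onto artificial diet. Five 3rd-instar Spodoptera litura larvae per cup, held at 25° C and 50-60% humidity. Mortality after 7 days expressed as pesticidal ratio.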

[5] = system: Ctenocephalides felis; assay: Test against Ctenocephalides felis (CTECFE), blood feeding; details: for mortality at 100 ppm: Ctenocephalides felis, in Bos taurus, 48 h, read-out: activity (mortality)
Procedure: (§1) Solvent: dimethyl sulfoxide
To produce a suitable preparation of active compound, 10 mg of active compound are dissolved in 0.5 ml solvent, and the concentrate is diluted with cattle blood to the desired concentration. Approximately 20 adult unfed (Ctenocepahlides felis) are placed in flea chambers. The blood chamber, sealed with parafilm on the bottom, are filled with cattle blood supplied with compound solution and placed on top of the flea chamber, so that the fleas are able to suck the blood. The blood chamber is heated to 37° C. whereas the flea chamber is kept at room temperature.
After 2 days mortality in % is determined. 100% means that all the fleas have been killed; 0% means that none of the fleas have been killed.

[6] = system: Lucilia cuprina 1st instar larvae; assay: Test against Lucilia cuprina larvae; details: 48 h, read-out: activity (larval mortality)
Procedure: as §1
10 mg active compound are dissolve in 0.5 mL dimethyl sulfoxide. Serial dilutions are made to obtain the desired rates.
Approximately 20 Lucilia cuprina 1st instar larvae are transferred into a test tube containing 1 cm^3 of minced horse meat and 0.5 ml aqueous dilution of test compound. After 48 hrs percentage of larval mortality are recorded. 100% efficacy=all larvae are killed, […].

[7] = system: Musca domestica; assay: Test against Musca domestica; details: Musca domestica, 48 h, read-out: activity (mortality)
Procedure: as §1
To produce a suitable preparation of active compound, 10 mg of active compound are dissolved in 0.5 ml solvent, and the concentrate is diluted with water to the desired concentration. Prior to the assay, a piece of kitchen sponge is soaked with a mixture of sugar and compound solution and placed into a container. 10 adults (Musca domestica) are placed into the container and closed with a perforated lid. After 2 days mortality in % is determined. 100% means that all the flies have been killed; 0% means that none of the flies have been killed.

[8] = system: adult engorged female Boophilus microplus ticks; assay: Test against Boophilus microplus (dip); details: Rhipicephalus microplus, 168 h, read-out: activity (mortality)
Procedure: as §1
(§2) To produce a suitable preparation of active compound, 10 mg of active compound are dissolved in 0.5 ml solvent, and the concentrate is diluted with water to the desired concentration. Eight to ten adult engorged female Boophilus microplus ticks are placed in perforated plastic beakers and immersed in aqueous compound solution for one minute. Ticks are transferred to a filter paper in a plastic tray. Egg deposition of fertile eggs is monitored after. After 7 days mortality in % is determined. 100% means that all the ticks have been killed; 0% means that none of the ticks have been killed.

[9] = system: Thrips palmi; assay: Thrips palmi spray test (THRIPL); details: active compound concentration 20 ppm; after 6 days
How it was run: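 Cucumber seedlings sprayed with compound formulated in DMF/polyoxyethylene alkyl phenyl ether and diluted in water, ammonium salt ± penetration enhancer at 1000 ppm added if needed. About 100 T. palmi eggs attached, plants held caged at 100% humidity, 23 °C. Percent activity scored from feeding damage after 6 days, 100 = no damage, 0 = as untreated.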

[10] = system: green peach aphids (Myzus persicae); assay: Myzus persicae spray test (MYZUPE); details: active compound concentration 20 ppm; after 6 days
Procedure: Unless not mentioned otherwise, the test solutions were prepared as follows:
Solvent: 3 parts by weight Dimethylformamide
Emulsifier: 1 part by weight Polyoxyethylene alkyl phenyl ether
In order to make an appropriate formulation of an active compound, 1 part by weight of the active compound is mixed with the above mentioned amount of solvent and emulsifier and the mixture is diluted with water to a prescribed concentration. Ammonium salt or ammonium salt and penetration enhancer in a dosage of 1000 ppm are added to the desired concentration if necessary.
1 day before treatment, green peach aphids (Myzus persicae) are inoculated onto the testing plants, about 50 heads per leaf, 100 for 1 pot. A paper label is placed on each pot. Solutions are sprayed directly onto both insects and plants. After drying, the pots are placed in the greenhouse at 20° C.-25° C. After 6 days mortality in % is determined. An insecticidal activity of 100% means that all aphids were killed, whereas an insecticidal activity of 0% means that no aphid was killed.

[11] = system: Nymphs of the tick Amblyomma hebraeum; assay: Amblyomma hebraeum test (AMBYHE), nymph immersion; details: application rate 100 ppm; immersion one minute; 42 days
Procedure: Solvent: Dimethyl sulfoxide
as §2, with “Nymphs of the tick Amblyomma hebraeum” for “Eight to ten adult engorged female Boophilus microplus ticks”, “petridish and incubated in a climate chamber for 42 days. After the specified period” for “plastic tray. Egg deposition”, “time,” for “fertile eggs is monitored after. After 7 days”

[12] = active compound concentration 20 ppm
[13] = Tetranychus urticae, 168 h, read-out: acaricidal activity
[14] = active compound concentration 4 ppm

| Compound | insecticidal activity [1, 12] [%] | pest or weed control at 20 ppm [2, 13] [%] | pest or weed control at 20 ppm [3, 12] [%] | pest or weed control at 20 ppm [4] [%] | mortality at 100 ppm [5] [%] | mortality at 100 ppm [6] [%] | mortality at 100 ppm [7] [%] | mortality at 20 ppm [8] [%] | pest or weed control at 4 ppm ([2]; Tetranychus urticae, 168 h, active compound concentration 4 ppm, read-out: acaricidal activity) [%] | pest or weed control at 4 ppm [3] [%] | pest or weed control at 4 ppm [4] [%] | insecticidal activity (by feeding damage degree) [9] [%] | mortality at 100 ppm [8] [%] | insecticidal activity [1, 14] [%] | acaricidal activity [2, 14] [%] | insecticidal activity [3, 12] [%] | insecticidal activity (mortality) [10] [%] | activity (mortality) [11] [%] | activity (mortality) ([5]; application rate 100 ppm in cattle blood, after 2 days) [%] |
| --- | --- | --- | --- | --- | --- | --- | --- | --- | --- | --- | --- | --- | --- | --- | --- | --- | --- | --- | --- |
| O=C(NCc1ccc(N2CCC(c3cc(C(F)(F)F)cc(C(F)(F)F)c3)(C(F)(F)F)C2O)cc1Cl)C1CC1 (stereo not drawn) [A1-27, N-(4-{3-[3,5-bis(trifluoromethyl)phenyl]-2-hydroxy-3-(trifluoromethyl)pyrrolidin-1-yl}-2-chlorobenzyl)cyclopropanecarboxamide] | 100 | 100 | 100 | 100 | 100 | 100 | 100 |  |  |  |  |  |  |  |  |  |  |  |  |
| CCC(=O)NCc1ccc(N2CCC(c3cc(Cl)cc(Cl)c3)(C(F)(F)F)C2O)cc1C(F)(F)F (stereo not drawn) [A1-35, N-{4-[3-(3,5-dichlorophenyl)-2-hydroxy-3-(trifluoromethyl)pyrrolidin-1-yl]-2-(trifluoromethyl)benzyl}propanamide] |  | 100 | 100 | 100 | 100 | 100 |  | 100 |  |  |  |  |  |  |  |  |  |  |  |
| O=C(NCc1ccc(N2CCC(c3cc(Cl)cc(Cl)c3F)(C(F)(F)F)C2O)cc1C(F)(F)F)C1CC1 (stereo not drawn) [A1-409, N-{4-[3-(3,5-dichloro-2-fluorophenyl)-2-hydroxy-3-(trifluoromethyl)pyrrolidin-1-yl]-2-(trifluoromethyl)benzyl}cyclopropanecarboxamide] |  |  |  |  | 100 | 100 | 100 |  | 100 | 100 | 100 | 98 | 90 |  |  |  |  |  |  |
| CCC(=O)NCc1ccc(N2CCC(c3cc(Cl)c(Cl)c(Cl)c3)(C(F)(F)F)C2O)nc1C(F)(F)F (stereo not drawn) [A3-13, N-({6-[2-hydroxy-3-(3,4,5-trichlorophenyl)-3-(trifluoromethyl)-pyrrolidin-1-yl]-2-(trifluoromethyl)pyridin-3-yl}methyl)propanamide] | 100 | 100 | 100 | 100 | 100 | 100 | 100 | 100 |  |  |  |  |  |  |  |  |  |  |  |
| O=C(NCc1cnc(N2CCC(c3cc(Cl)c(F)c(Cl)c3F)(C(F)(F)F)C2O)nc1C(F)(F)F)C1CC1 (stereo not drawn) [A4-115] |  |  |  |  |  |  |  |  |  |  |  | 98 |  | 100 | 100 | 100 | 100 | 100 | 90 |
| O=C(NCc1cnc(N2CCC(c3cc(C(F)(F)F)cc(C(F)(F)F)c3)(C(F)(F)F)C2O)cc1C(F)(F)F)C1CC1 (stereo not drawn) [A5-27, N-{[6-{3-[3,5-bis(trifluoromethyl)phenyl]-2-hydroxy-3-(trifluoromethyl)pyrrolidin-1-yl}-4-(trifluoromethyl)pyridin-3-yl]methyl}cyclopropanecarboxamide] |  | 100 | 100 | 100 | 100 | 100 | 100 |  |  | 100 | 100 | 90 | 100 |  |  |  |  |  |  |
| CCC(=O)NCc1ccc(N2CC(c3cc(Cl)c(Cl)c(Cl)c3)(C(F)(F)F)CC2=O)cc1C(F)(F)F (stereo not drawn) [C1-46, N-{4-[2-oxo-4-(3,4,5-trichlorophenyl)-4-(trifluoromethyl)pyrrolidin-1-yl]-2-(trifluoromethyl)benzyl}propanamide] | 100 | 100 |  | 100 | 100 | 100 |  |  |  |  |  |  |  |  |  |  |  |  |  |
